Experimental data as given in patent US6730659B2, “Antimicrobial peptides and methods of use thereof” (The Board of Regents of the University of Oklahoma, priority 1999, dated 2004).
“Also recorded” adds a separate entry of the source. Where two headings read alike, the source gives them in different places. Positions of bridges follow the written chain, without caps; N, C: chain ends. Residues, ends and D or L forms follow the SMILES beside them. No end group written: not given here. *: point of attachment. Acm = CC(=O)NC*

Tests used:
[1] = U.S. Pat. Nos. 5,607,916 and 5,458,874; cited from earlier work
S. typhimurium LT2 = test: survival of mice inoculated with live Salmonella typhimurium LT2; format: in vivo, mice (female, Balb/c); conditions: for rescue from lethal infection in words: oral and intraperitoneal routes; for survival rate: 100 μg
Description: Mice (female, Balb/c, 6-8 weeks) were administered a dose of live S. typhimurium LT2 (8×10^8/mouse) via the oral route. Without treatment, this dose of live organisms led to the death of all animals between day 3 and 4 (i.e. LD100 at day 3 or 4). Following challenge with Salmonella, peptide 20-44 (0-150 μg/mouse) was administered via the intravenous; oral, and intraperitoneal routes. […] At day 6 post infection, 100% of animals given a dose of 125 μg of peptide 20-44 intravenously survived. 80% of mice given 50, 100 and 150 μg of peptide survived through to day 5. Data shown in FIG. 10 strongly indicate that peptide 20-44 may also be given via the oral route since 80% survival rates were obtained with 100 μg of peptide. This is evidence that the peptide is not destroyed by the acid environment and enzymes of the stomach and indicates an alternative route of administration to the intravenous route discussed in FIG. 9. The third route of administration of peptide 20-44 was the intraperitoneal route. This is often the method of choice in a veterinary situation.

S. typhimurium SH9178 = test: in vitro bactericidal activity, S. typhimurium SH9178; format: cell-based, Salmonella typhimurium
Description: (§1) Methods used herein are those previously described in U.S. Pat. Nos. 5,607,916; 5,627,262; and 5,650,392.
(§2) Peptides 20-44, 20-44ser26 and 20-44ser42, were assayed for bactericidal activity using S. typhimurium SH9178 as the test organism. […] Peptide 20-44ser42 killed 97.8% of bacteria at 75 μM, and peptide 20-44ser26 killed 99.6% of bacteria at 75 μM. Importantly, at concentrations of only 12.5 μM, peptide 20-44ser26 killed 70.4% of organisms and peptide 20-44ser42 killed 66.6% of bacteria. We tested these peptides with the smooth, more virulent LT2 strain of S. typhimurium, (FIG. 3). […] Indeed, the two serine analogs, 20-44ser26 and 20-44ser42 were able to kill 73% and 65% of bacteria at 12.5 μM, the lowest concentration of peptide tested. These levels of mortality were very much greater than those obtained using peptide 20-44. Two other organisms, Staphylococcus aureus ATCC strain 25923 and Enterococcus faecalis (a clinical isolate), both of which are gram-positive organisms, were also tested against 20-44ser26 and 20-44ser42.

[2] = test system: LT2 strain of S. typhimurium; format: cell-based; conditions: 12.5 μM, lowest concentration tested, FIG. 3
Description: as §1, §2

[3] = format: physicochemical
Excerpt: In addition to the Increased potency of peptide 20-44ser42 and 20-44ser26, these two peptides have technical advantages over the parent peptide 20-44. The two new analogs are easier to synthesize and purify because the internal disulfide bonding between the two cysteine residues can no longer occur.

[4] = LPS binding in the in vitro limulus amebocyte lysate (LAL) assay; conditions: FIGS. 6-7
Description: We tested the ability of the peptide analogs of the present invention to bind LPS in the in vitro limulus amebocyte lysate (LAL) assay and compared them with the parent peptide, 20-44. […] Similarly, peptide 20-44ser42 was also capable of neutralizing the effect of monophosphoryl lipid A at concentrations greater than 500 μg/ml (FIG. 7).

[5] = intravenous infusion 3.0 mg/kg with E. coli LPS 250 μg/kg over 30 min; cited from earlier work
[6] = cited from earlier work
Salmonella typhimurium = conditions: cited from earlier work
Escherichia coli = conditions: cited from earlier work
Pseudomonas aeruginosa = conditions: cited from earlier work
Enterococcus faecalis = conditions: cited from earlier work
Staphylococcus aureus = conditions: cited from earlier work
[7] = 75 μM (200 μg/ml), highest concentration tested, FIG. 2

20-44ser26/42: homologous to peptide 20-44, serines substituted for cysteines at positions 26 and 42 (NQGRHFSGGALIHARFVMTAASSFQ; listed as Homo Sapiens)
antibiotic / antimicrobial activity in words [1]: ineffective antibiotics

20-44ACM: sequence of 20-44 with both cysteines permanently protected with an ACM (boc-cys-acetamidomethyl) side group; control peptide (NQGRHFC(Acm)GGALIHARFVMTAASC(Acm)FQ; listed as Homo Sapiens) [Peptide 20-44ACM]
rescue from lethal infection in words (S. typhimurium LT2; intravenous): succumbed to infection very rapidly; also recorded: no activity | antibiotic / antimicrobial activity in words [1]: ineffective antibiotics

NQGRHFCGGALIHARFVMTAASSFQ [Peptide 20-44ser42]
bacteria killed (S. typhimurium SH9178; 12.5 μM): 66.6% | bacteria killed (S. typhimurium SH9178; [7]): 97.8% | bacteria killed [2]: 65% | solubility compared with the 20-44 peptide [3]: greater than the 20-44 peptide

CC[C@H](C)[C@@H]1NC(=O)[C@H](CC(C)C)NC(=O)[C@H](C)NC(=O)CNC(=O)CNC(=O)[C@@H](NC(=O)[C@H](Cc2ccccc2)NC(=O)[C@H](Cc2c[nH]cn2)NC(=O)[C@H](CCCNC(=N)N)NC(=O)CNC(=O)[C@H](CCC(N)=O)NC(=O)[C@@H](N)CC(N)=O)CSSC[C@@H](C(=O)N[C@@H](Cc2ccccc2)C(=O)N[C@@H](CCC(N)=O)C(=O)O)NC(=O)[C@H](CO)NC(=O)[C@H](C)NC(=O)[C@H](C)NC(=O)[C@H]([C@@H](C)O)NC(=O)[C@H](CCSC)NC(=O)[C@H](C(C)C)NC(=O)[C@H](Cc2ccccc2)NC(=O)[C@H](CCCNC(=N)N)NC(=O)[C@H](C)NC(=O)[C@H](Cc2c[nH]cn2)NC1=O [Peptide 20-44] (H-NQGRHFCGGALIHARFVMTAASCFQ-OH; disulfide 7-23; N-terminus and C-terminus assumed)
bactericidal activity in words (S. typhimurium SH9178; FIG. 2): significant antibiotic activity | binding of LPS / monophosphoryl lipid A in words [4]: bound LPS | mice survived (S. typhimurium LT2; 50, 100 and 150 μg (intravenous by context, FIG. 9), through to day 5): 80% | survival rate (S. typhimurium LT2; intraperitoneal, day 5 post infection, FIG. 11): 80% | survival rate (S. typhimurium LT2; intraperitoneal, day 6 post infection, FIG. 11): 60% | animals survived (S. typhimurium LT2; intravenous, 125 μg, day 6 post infection, FIG. 9): 100% | rescue from lethal infection in words (S. typhimurium LT2; intravenous): can rescue animals from lethal infection | survival rate (S. typhimurium LT2; oral, FIG. 10): 80% | effect on LPS-induced circulatory shock in words [5]: prevented LPS-induced hyperdynamic and hypodynamic circulatory shock | 7-day survival rate ([6]; 0.2 mg/kg intravenously after lethal dose of LPS): 30% | 7-day survival rate ([6]; 1.0 mg/kg intravenously after lethal dose of LPS): 50% | 7-day survival rate ([6]; 5.0 mg/kg intravenously after lethal dose of LPS): 80% | endotoxin-induced increase in circulating TNFα ([6]; 5.0 mg/kg, sensitized rats): significantly inhibited | in vitro bactericidal activity in words (Salmonella typhimurium): strong in vitro bactericidal activity | in vitro bactericidal activity in words (Escherichia coli): strong in vitro bactericidal activity | in vitro bactericidal activity in words (Pseudomonas aeruginosa): strong in vitro bactericidal activity | activity in words (Enterococcus faecalis): active | activity in words (Staphylococcus aureus): active

NQGRHFSGGALIHARFVMTAASCFQ [Peptide 20-44ser26]
bacteria killed (S. typhimurium SH9178; 12.5 μM): 70.4% | bacteria killed (S. typhimurium SH9178; [7]): 99.6% | bacteria killed [2]: 73% | solubility compared with the 20-44 peptide [3]: greater than the 20-44 peptide
